Experimental data: patent publication US20140296248A1, “METHODS AND COMPOSITIONS FOR PREDICTING RESISTANCE TO ANTICANCER TREATMENT” (Stichting het Nederlands Kanker Instiuut-Antoni van …, priority 2011, published 2014)
Entries after “also recorded” stand apart in the source; their conditions may differ.

Legend:
[1] = system: H3255 cells (EGFR L858R NSCLC); settings: parental cells, low nanomolar concentrations; cited from earlier work
[2] = system: PC9 cells (EGFR delE746-A750 NSCLC); assay: Long-term colony formation / cell proliferation assay in PC9 cells; type: cell-based, human
Method: (§1) Single cell suspensions of the lung cancer cell lines were seeded into 6-well plates (2×10^4 cells/well) and cultured both in the absence and presence of the ALK inhibitors. At the endpoints of colony formation assays, cells were fixed with formaldehyde, stained with crystal violet (0.1% w/v) and photographed. All relevant assays were performed independently at least three times. All knockdown and overexpression experiments were done by retroviral or lentiviral infections.
(§2) Cells were seeded into 6-well plates (2-5×10^4 cells/well) and cultured both in the absence and presence of drugs as indicated. […] All knockdown and overexpression experiments were done by retroviral or lentiviral infection. All relevant assays were performed independently at least three times.

[3] = system: PC9 cells (EGFR delE746-A750 NSCLC); settings: parental cells, low nanomolar concentrations; cited from earlier work
[4] = system: H3255 cells (EGFR L858R NSCLC); assay: Long-term colony formation / cell proliferation assay in H3255 cells; type: cell-based, human
Method: as §1, §2

Huh-7 HCC cells = assay: Long-term colony formation assay in Huh-7 cells; type: cell-based, human
Method: (§3) Cells were seeded into 6-well plates (2-5×10^4 cells/well) and cultured both in the absence and presence of drugs as indicated. More details are described in Huang et al., 2009 (Huang et al., 2009). All knockdown and overexpression experiments were done by retroviral or lentiviral infection. All relevant assays were performed independently at least three times.

ERK signaling = ERK signaling in MED12-suppressed cancer cells in presence of drugs; type: cell-based, human
Method: The cells were fixed, stained and photographed after 10 (untreated) or 28 days (treated). […] The cells were fixed, stained and photographed after 14 (untreated) or 28 days (treated). […] G) Colony formation assay of Huh-7 cells expressing pLKO control or shMED12 vectors (#4 and #5) were cultured in 2 μM sorafenib. The cells were fixed, stained and photographed after 14 (untreated) or 21 days (treated). […] Huh-7 cells expressing pLKO control or shMED12 vectors were grown in the absence or presence of 4 μM sorafenib for 6 hours and the cell lysates were harvested for western blotting analysis.

[5] = system: H1993 cells (MET-amplified NSCLC); assay: Long-term colony formation assay in H1993 cells; type: cell-based, human
Method: as §1, §2

[6] = system: EBC-1 cells (MET-amplified NSCLC); assay: Long-term colony formation assay in EBC-1 cells; type: cell-based, human
Method: as §1, §2

phospho-ERK [7] = assay: Western blotting of phospho-ERK in PC9 cells; type: cell-based, human; settings: 25 nM gefitinib, 8 hours
Method: (A) Validation of independent shRNAs (in pLKO vector) targeting DABP2IP in PC9 cells. […] The cells were fixed, stained and photographed after 2 weeks (untreated) or 4 weeks (EGFR inhibitors treatment). (B) The knockdown ability of each of the shRNAs was measured by examining the DAB2IP mRNA levels by qRT-PCR. Error bars denote standard deviation (SD).
To validate the results of Applicants' focused shRNA mini-screen, Applicants individually introduced the five DAB2IP shRNAs from the TRC shRNA collection into PC9 cells (FIG. 14A). […] Next, Applicants addressed whether loss of DAB2IP affects the activity of downstream signaling components of the RAS pathway, in particular the phosphorylation (activation) status of ERK. […] Next, Applicants individually introduced the five NF1 shRNAs from the TRC shRNA collection into PC9 cells (FIG. 15A).

[8] = system: A375 melanoma cells (BRAFV600E); assay: Long-term colony formation assay in A375 cells; type: cell-based, human; settings: for drug response of MED12 knockdown A375 cells: suppression of MED12; for effect of recombinant TGFβ on response of A375 cells to PLX4032 and AZD6244: TGFβ plus PLX4032 or AZD6244, TGFβ-dosage dependent
Method: as §2

[9] = system: H3122 cells (EML4-ALK NSCLC); assay: Long-term colony formation / cell proliferation assay in H3122 cells; type: cell-based, human; settings: for effect of recombinant TGFβ on crizotinib response of H3122 cells: TGFβ in combination with crizotinib, TGFβ-dosage dependent
Method: as §1, §2

[10] = system: human NSCLC cell lines that harbor EML4-ALK translocations; settings: Galkin 2007; Koivunen 2008; Soda 2007; cited from earlier work
phospho-ERK [11] = assay: Western blotting of phospho-ERK in H3122 cells; type: cell-based, human; settings: 20 nM NVP-TAE684, 24 hours
Method: (A) MED12^KD cells retain phospho-ERK levels in the presence of ALK inhibitor in EML4-ALK cells. H3122 cells expressing controls (pRS or shGFP) or shMED12 vectors were gown in the absence or presence of 20 nM NVP-TAE684 for 24 hours and the cell lysates were harvested for western blotting analysis. (B) SMARCE1^KD cells have elevated phospho-ERK in EML4-ALK cells. H3122 cells expressing controls (pRS or shGFP) or shSMARCE1 vectors were gown in the absence or presence of 20 nM NVP-TAE684 for 24 hours and the cell lysates were harvested for western blotting analysis. (C) MED12^KD cells have elevated phospho-ERK levels in EGFR mutant cells.
Given that loss of MED12 or SMARCE1 causes resistance to multiple tyrosine kinase inhibitors in NSCLC cell lines, Applicants asked whether the activity of downstream components of receptor tyrosine kinase signaling is altered. ERK is a key downstream component and its phosphorylation status positively correlates with its activation that can be determined by specific antibodies against the phosphorylated form of ERK. H3122 cells were infected with two independent controls shRNA vectors or shRNAs targeting either MED12 or SMARCE1 and confirmed loss of MED12 or SMARCE1 protein by immunoblotting (FIGS. 16A and B). […]

[12] = system: SK-CO-1 colorectal cancer cells (KRASV12); assay: Long-term colony formation assay in SK-CO-1 cells; type: cell-based, human; settings: for effect of recombinant TGFβ on response of SK-CO-1 cells to AZD6244: TGFβ plus AZD6244, TGFβ-dosage dependent
Method: as §3

Compound: C#Cc1cccc(Nc2ncnc3cc(OCCOC)c(OCCOC)cc23)c1 [erlotinib]
- sensitivity of H3255 cells [1]: exquisitely sensitive
- drug response of DAB2IP knockdown PC9 cells ([2]; shDAB2IP#1 and #3, 50 nM): conferred resistance
- drug response of NF1 knockdown PC9 cells ([2]; shNF1#2 and #5, 50 nM): conferred resistance
- sensitivity of PC9 cells [3]: exquisitely sensitive
- drug response of control H3255 cells ([4]; pRS and shGFP control cells): effectively eradicated
- drug response of MED12 knockdown H3255 cells ([4]; shMED12): insensitive

Compound: CNC(=O)c1cc(Oc2ccc(NC(=O)Nc3ccc(Cl)c(C(F)(F)F)c3)cc2)ccn1 [sorafenib]
- sensitivity of Huh-7 cells (Huh-7 HCC cells; parental cells): sensitive
- drug response of MED12 knockdown Huh-7 cells (Huh-7 HCC cells; shMED12, 2 μM sorafenib): became resistant
- activation of ERK signaling by MED12 suppression in the presence of drug (ERK signaling): persists

Compound: C[C@@H](Oc1cc(-c2cnn(C3CCNCC3)c2)cnc1N)c1c(Cl)ccc(F)c1Cl [crizotinib]
- drug response of ARID1A knockdown H1993 cells ([5]; shARID1A #1 and #2): conferred resistance
- drug response of SMARCE1 knockdown H1993 cells ([5]; shSMARCE1#1 and #2): conferred resistance
- drug response of SMARCE1 knockdown H1993 cells reconstituted with SMARCE1-ND ([5]; shSMARCE1 plus SMARCE1-ND): restored the sensitivity
- drug response of SMARCE1 knockdown EBC-1 cells ([6]; shSMARCE1#1 and #2): conferred resistance
- drug response of SMARCE1 knockdown EBC-1 cells reconstituted with SMARCE1-ND ([6]; shSMARCE1 plus SMARCE1-ND): restored the sensitivity

Compound: COc1cc2ncnc(Nc3ccc(F)c(Cl)c3)c2cc1OCCCN1CCOCC1 [gefitinib]
- phosphorylation of ERK in shDAB2IP PC9 cells treated with drug (phospho-ERK [7]): maintained
- activation of ERK signaling by MED12 suppression in the presence of drug (ERK signaling): persists

Compound: O=C(NOC[C@H](O)CO)c1ccc(F)c(F)c1Nc1ccc(I)cc1F [PD-0325901]
- drug response of MED12 knockdown A375 cells [8]: conferred resistance

Compound: COc1cc(N2CCC(N3CCN(C)CC3)CC2)ccc1Nc1ncc(Cl)c(Nc2ccccc2S(=O)(=O)C(C)C)n1 [NVP-TAE684]
- drug response of ARID1A knockdown H3122 cells ([9]; shARID1A, 300 nM crizotinib or 2.5 nM NVP-TAE684): confer resistance
- drug response of MED12 knockdown H3122 cells ([9]; shMED12 vectors, 300 nM crizotinib or 2.5 nM NVP-TAE684): confer resistance; also recorded: conferred resistance
- drug response of SMARCE1 knockdown H3122 cells ([9]; shSMARCE1, 300 nM crizotinib or 2.5 nM NVP-TAE684): confer resistance
- inhibition of EML4-ALK NSCLC cell lines [10]: potently inhibit
- ERK phosphorylation in MED12 knockdown H3122 cells in presence of inhibitor (phospho-ERK [11]; shMED12): maintained higher levels of ERK phosphorylation
- phosphorylated ERK in SMARCE1 knockdown H3122 cells in presence of inhibitor (phospho-ERK [11]; shSMARCE1): maintained higher levels of phosphorylated ERK

Compound: TGFβ
- effect of recombinant TGFβ on crizotinib response of H3122 cells [9]: continued to proliferate
- effect of recombinant TGFβ on crizotinib response of H3122 cells ([9]; listed as Recombinant TGFβ): leads to resistance
- effect of recombinant TGFβ on response of PC9 cells to EGFR inhibitors ([2]; TGFβ plus EGFR inhibitors): conferred resistance
- effect of recombinant TGFβ on response of A375 cells to PLX4032 and AZD6244 [8]: dosage dependent resistance
- effect of recombinant TGFβ on response of A375 cells to PLX4032 and AZD6244 ([8]; listed as Recombinant TGFβ): leads to resistance
- proliferation of A375 cells, recombinant TGFβ alone ([8]; TGFβ treatment alone): growth inhibition
- proliferation of Huh-7 cells, recombinant TGFβ alone (Huh-7 HCC cells; TGFβ treatment alone): growth inhibition
- effect of recombinant TGFβ on response of H3255 cells to EGFR inhibitors ([4]; TGFβ plus EGFR inhibitors): conferred resistance
- effect of recombinant TGFβ on response of SK-CO-1 cells to AZD6244 [12]: dosage dependent resistance
- effect of recombinant TGFβ on response of SK-CO-1 cells to AZD6244 ([12]; listed as Recombinant TGFβ): leads to resistance

Compound: Cn1cnc2c(F)c(Nc3ccc(Br)cc3Cl)c(C(=O)NOCCO)cc21 [AZD6244, seluteminib]
- activation of ERK signaling by MED12 suppression in the presence of drug (ERK signaling): persists
- sensitivity of SK-CO-1 cells ([12]; parental cells): highly sensitive
- drug response of MED12 knockdown SK-CO-1 cells ([12]; shMED12, 0.5 μM AZD6244): conferred resistance

Compound: Cc1cccc(-c2nn3c(c2-c2ccnc4ccc(C(N)=O)cc24)CCC3)n1 [LY2157299]
- proliferation under monotherapy, control and MED12KD H3122 cells ([9]; 1 μM LY2157299 alone, all cells): little effect

Compound: CCCS(=O)(=O)Nc1ccc(F)c(C(=O)c2c[nH]c3ncc(Cl)cc23)c1F [PLX4720]
- drug response of MED12 knockdown A375 cells [8]: conferred resistance
